Tests used:
[1] = Dietary supplementation in patients: hormones and clinical course; assay type: in vivo, human; details: for levels of luteinizing hormone, increased by a factor of: initially 2.5th percentile
Protocol: (§1) Galactose powder was supplied by Falcento. Galactose levels in whole blood were determined in a healthy volunteer after the oral consumption of 250 ml of water in which 0.3 g of galactose per kilogram of body weight had been dissolved. Measurements of galactose levels in blood were made by means of spectrophotometry at intervals of 10 minutes during the first hour and at intervals of 30 minutes for an additional 3 hours. Lactose or galactose supplementation was administered as an aqueous solution at a dose of 0.5 to 1.0 g per kilogram per day, divided into three to six daily doses (on the basis of patient preference).

[2] = system: skin fibroblasts; experiment: Evaluation of glycogen by electron microscopy in fibroblasts; assay type: cell-based, human; details: 5.5 mM sugar in medium, 50 h
Protocol: For electron microscopy, skin fibroblasts of patients and controls were cultured to a confluence of 50 to 70% in M199 medium (Life Technologies) supplemented with 10% fetal calf serum and 1% penicillin/streptomycin in a humidified atmosphere containing 5% CO2 at 37°C. Cells were switched to a medium consisting of DMEM supplemented with 4mM L-glutamine (Invitrogen), 10% dialyzed FCS (Gibco), 1mM uridine (Calbiochem), and either 5.5 mM D-glucose (Sigma), or 5.5 mM D-Galactose (Merck). After 50 h of incubation, cells were centrifuged for 10 min at 1000rpm and fixed by gentle addition of 2% glutaraldehyde buffered with 0.1 M sodium cacodylate pH7.4 after removing the medium. After at least 4h fixation, the pellets were very carefully taken off and post-fixed in 1% osmium tetroxide in Palade buffer pH 7.4 with 1% potassium hexacyanoferrate(III)-trihydrate, and after dehydration in ethanol and propylene oxide, embedded in Epon for electron microscopy. Semithin 1µm thick transverse sections were stained with 1% Toluidine Blue. Ultrathin sections were stained with uranyl acetate and lead citrate and examined on a JEOL 1200 EX\II. […] Cells with small darkly staining aggregates of glycogen were counted as positive. Fibroblasts were prepared for evaluation of glycogen by electron microscopy as described above. The presence of glycogen in control and patient fibroblasts cultured in the presence of either glucose or galactose was assessed by electron microscopy. Cells (of 115-160 total) with small darkly staining aggregates of glycogen were counted as positive. Aggregates are typically more common in glycogen storage diseases (picture for hepatocytes s. Fig. 7, panel C, D).

[3] = system: transferrin; experiment: Dietary supplementation in patients: transferrin glycosylation; assay type: in vivo, human; details: for transferrin glycosylation by mass spectrometry: six patients, 0.5 to 1.0 g per kilogram per day, within 2 weeks
Protocol: (§2) Analysis of transferrin glycosylation was performed on serum samples with the use of isoelectric focusing, (3,4) sodium dodecyl sulfate-polyacrylamide-gel electrophoresis (SDS-PAGE), (3) or liquid chromatography-mass spectrometry (9) (Fig. 3, and the Examples II). […] Green fluorescent protein engineered for retention in the endoplasmic reticulum was modified to contain an N-glycosylation site that, when glycosylated, causes loss of fluorescence (Glyc-ER-GFP). (11) Glyc-ER-GFP was transfected into patient fibroblasts in culture, and fluorescence was measured by means of quantitative microscopy (see the Examples II).
as §1
For high-resolution mass spectrometry of transferrin (Fig. 3), a 5 µl serum sample was incubated with anti-transferrin beads as described.^8 The eluate was analyzed on a microfluidic 6540 LC-chip-QTOF instrument (Agilent Technologies) using a C8 protein chip. Data analysis was performed using Agilent Mass Hunter Qualitative Analysis Software B.04.00. The Agilent BioConfirm Software was used to deconvolute the charge distribution of raw data to reconstructed mass data. For confirmation of the structural annotations, samples were processed for analysis of tryptic transferrin peptides by MALDI-TOF as described^9 (results not shown).

[4] = Determination of galactose kinetics in whole blood after oral galactose; assay type: in vivo, human; details: healthy volunteer, oral 0.3 g of galactose per kilogram of body weight in 250 ml water
Protocol: as §1
Enzymatic determination of galactose levels in whole blood was performed using exogenous galactose dehydrogenase (galactose + NAD^+ → galactono-1,4-lactone + NADH + H^+). Galactose levels were determined in a healthy control after oral consumption of 0.3 g galactose (falcento AG, Kreuzlingen, Switzerland) per kilogram body weight dissolved in 250 ml water. Measurements of galactose levels were made at intervals of 10 minutes during the first hour and at intervals of 30 minutes for additional three hours.
3000 µl of galactose buffer reagent (Instruchemie, Delfzijl, Netherlands), 100 µl of galactose NAD reagent (Instruchemie) and 200 µl of a diluted calibrator (Instruchemie) were mixed and the absorbance against distilled water was read at a temperature of 25 °C and a wavelength of 340 nm (optical density 1).
500 µl of each whole blood sample were added to 1000 µl perchloric acid (0.33 mol/l) for deproteinization and then centrifuged. 200 µl of the supernatant were added to 3000 µl galactose buffer reagent, 100 µl galactose NAD reagent and absorbance was read (optical density 1). After supplementation of 20 µl galactose start reagent and incubation at 25 °C for 15 min, the optical density 2 was measured in both, the calibrator and blood samples.
For manual calculation of the galactose concentration the following formula was used: galactose(mmol/l) = (ΔO.D.controlorsample)/(ΔO.D.calibrator) × concentrationofcalibrator [formula]

[5] = system: total serum N-glycome; experiment: Dietary supplementation in patients: total serum N-glycome by capillary electrophoresis; assay type: in vivo, human; details: patients with galactose supplementation
From the text: • Figure 1. Glycoprotein Biosynthesis and Congenital Disorders of Glycosylation. For the N-glycosylation of proteins, a glycan precursor is assembled from monosaccharide units on an anchoring isoprenoid alcohol, dolichol, in the membrane of the endoplasmic reticulum. Each glycan precursor is then transferred en bloc to a specific asparagine residue in the nascent peptide chain of a protein being synthesized by a ribosome and entering the endoplasmic reticulum. Because transferrin (brown line) is abundant in blood, it is used as an indicator of the efficiency of the glycosylation system. Transferrin has two glycosylation sites. The protein is transported to the Golgi apparatus, and the glycans are modified in multiple steps. Each fully modified glycan is terminated with two negatively charged sialic acid residues. Thus, the transferrin molecule carries a total of four sialic acid residues. If a genetic defect impairs synthesis of the precursor glycan in the endoplasmic reticulum, one or both glycosylation sites of transferrin may remain unoccupied (white arrow). Such defects are classified as congenital disorders of glycosylation type I (CDG-I). […] CDG-I defects are easily identified owing to the occurrence of transferrin isoforms with two or no sialic acid residues detected by means of IEF. […]

[6] = system: PGM1-deficient fibroblasts; experiment: Assay for cellular glycosylation efficiency using modified GFP (Glyc-ER-GFP); assay type: cell-based, human; details: fibroblasts from patients, galactose alone added to culture medium
Protocol: as §2
Glycosylation efficiency was measured using Glyc-ER-GFP constructs as described.^11 In brief, cells were seeded in a 96 wells-plate at 40% confluence. 24h later, they were incubated in medium without or with addition of supplements (e.g. 0-1 mM galactose +/-100µM uridine) for 2 days with medium replacement every day. Cells were then transfected by the Glyc-ER-GFP and maintained in the same culture media for two more days. Cells were fixed using 4% paraformaldehyde/4% sucrose and stained by Hoechst 33342 (Thermo scientific). Plates were analyzed using a high-content microscope, IN Cell 1000 (GE Healthcare), and data were analyzed with the CytoSeer software (Vala Sciences) using a protein mask.

[7] = Patients 2 and 6, after initiation of galactose treatment

SMILES	levels of luteinizing hormone, increased by a factor of ([1]; Patient 2, after initiation of galactose supplementation)	levels of luteinizing hormone, increased by a factor of ([1]; Patient 6, after initiation of galactose supplementation)	hypogonadotropic hypogonadism ([1]; Patients 2 and 6, after initiation of galactose supplementation)	cardiac function [1, 7]	episodes of rhabdomyolysis [1, 7]	ultrasonography of the liver ([1]; Patients 2 and 6, every 3 months during galactose supplementation)	levels of follicle-stimulating hormone (FSH) ([1]; Patients 2 and 6, galactose supplementation)	% of cells with glycogen aggregates ([2]; Control 1 fibroblasts) [%]	% of cells with glycogen aggregates ([2]; Control 2 fibroblasts) [%]	% of cells with glycogen aggregates ([2]; PGM1-6 patient fibroblasts) [%]	% of cells with glycogen aggregates ([2]; PGM1-7 patient fibroblasts) [%]	tetrasialo-transferrin ([3]; Patient 1.1, daily 0.5 g per kg b.w. in 3 portions, doubled after one week, HPLC, within a few weeks, 50 before) [%]	transferrin glycosylation by mass spectrometry [3]	plasma concentration of galactose, maximum [4] [µM]	time after which galactose decreased to baseline levels [4] [h]	time of maximum galactose concentration [4] [min]	glycosylation of the total serum N-glycome [5]	glycosylation of Glyc-ER-GFP [6]
O=C[C@H](O)[C@@H](O)[C@@H](O)[C@H](O)CO [galactose]	5	10	resolved within a few weeks	remained stable	no further episodes	no increase in echogenicity and no signs of cholestasis	normalized	2	4	<1	<1	70	improved substantially	700	2	50	substantial improvement	substantially enhanced
OC[C@H]1O[C@@H](O[C@H]2[C@H](O)[C@@H](O)C(O)O[C@@H]2CO)[C@H](O)[C@@H](O)[C@H]1O (stereo partly shown) [lactose]	–	–	–	–	–	–	–	–	–	–	–	–	improved substantially	–	–	–	–	–

Source: patent EP2905621B1, “MEANS AND METHODS FOR DIAGNOSING AND TREATING CDG CAUSED BY A DEFICIENCY OF PGM1” (Westfälische Wilhelms-Universität Münster, priority 2014, dated 2015)
